Measurements as given in ChEMBL document CHEMBL3137381, “MMV Box Onchocerca lienalis screening set”.

Tests used:
Format in all cases: functional
Onchocerca lienalis [1] = experiment: MMV: Percent motility assay at a compound concentration of 1.25e-5 M. Activity score legend: 3: Active, 2: Moderately active; 1: Inactive, 0: Toxic; settings: at 12.5 µM
Onchocerca lienalis [2] = experiment: MMV: Percent motility assay at a compound concentration of 3.1e-6 M. Activity score legend: 3: Active, 2: Moderately active; 1: Inactive, 0: Toxic; settings: at 3.1 µM
Onchocerca lienalis [3] = experiment: MMV: Percent motility assay at a compound concentration of 1.9e-7 M. Activity score legend: 3: Active, 2: Moderately active; 1: Inactive, 0: Toxic; settings: at 0.19 µM
Onchocerca lienalis [4] = experiment: MMV: Percent motility assay at a compound concentration of 7.8e-7 M. Activity score legend: 3: Active, 2: Moderately active; 1: Inactive, 0: Toxic; settings: at 0.78 µM

Structure (SMILES) | Motility (Onchocerca lienalis [1]) | Motility (Onchocerca lienalis [2]) | Motility (Onchocerca lienalis [3]) | Motility (Onchocerca lienalis [4])
O=C(Nc1ccc(Cl)c(Cl)c1)Nc1ccc(Cl)c(Cl)c1 | 100% | 100% | 100% | 100%
N=c1n(CCN2CCCCC2)c2ccccc2n1CC(=O)c1ccc(Cl)c(Cl)c1 | 100% | 100% | 100% | 100%
Nc1nc(Nc2cccc(F)c2)nc2ccccc12 | 100% | 100% | 100% | 100%
COc1ccc(/C=C2/SC(=Nc3ccccc3)NC2=O)cc1 | 100% | 100% | 100% | 100%
COc1ccc(-c2nc(N3CCN(C(=O)C4CCCCC4)CC3)c3c4c(sc3n2)CCCC4)cc1 | 100% | 100% | 100% | 100%
O=C(NC1CCN(Cc2ccccc2)CC1)c1cc2nc(-c3ccc(Cl)s3)cc(C(F)(F)F)n2n1 | 100% | 100% | 100% | 100%
Cc1sc(NC(=O)c2ccccc2)c(C(c2cccs2)N2CCN(c3ccccc3)CC2)c1C (centres undefined) | 100% | 100% | 100% | 100%
Cc1sc(NC(=O)c2ccco2)c(C(c2cccnc2)N2CCC(Cc3ccccc3)CC2)c1C (centres undefined) | 100% | 100% | 100% | 100%
COc1cc(C(=O)Nc2nc3c(cc4c5c(cccc53)CC4)s2)cc(OC)c1OC | 100% | 100% | 100% | 100%
COc1ccc(CCN2C(=O)c3[nH]nc(-c4cc(Cl)c(C)cc4O)c3C2c2ccccc2F)cc1 (centres undefined) | 100% | 100% | 100% | 100%
N#Cc1nc(Cc2cccc3ccccc23)oc1N1CCN(C(c2ccccc2)c2ccccc2)CC1 | 100% | 100% | 100% | 100%
OC1=C2C(=Nc3ccccc3SC2c2ccccc2)c2ccccc21 (centres undefined) | 100% | 100% | 100% | 100%
COc1cc(C(=O)Nc2ccc(-c3nc4ccccc4[nH]3)cc2)cc(OC)c1OC | 100% | 100% | 100% | 100%
CCOc1ccc(N2C(N)=NC(N)=NC2(C)C)cc1.Cl | 100% | 100% | 100% | 100%
COc1cccc(Nc2nc(N)c3ccccc3n2)c1.Cl | 100% | 100% | 100% | 100%
Cc1ccc(C(=O)c2oc3ccc4c(C)cc(=O)oc4c3c2C)cc1 | 100% | 100% | 100% | 100%
COC(=O)c1ccc(C2C3=C(O)CC(c4ccc(F)cc4)CC3=Nc3ccccc3N2C(=O)c2ccccc2)cc1 (centres undefined) | 100% | 100% | 100% | 100%
CCCCCCc1cc2cc(-c3csc(C=Cc4ccccc4)n3)c(=O)oc2cc1O | 100% | 100% | 100% | 100%
O=C(CCl)NCCOc1ccc(Cl)cc1Cl | 100% | 100% | 100% | 100%
Oc1ccc(-c2nc(-c3ccc4oc5ccc(-c6[nH]c(-c7ccc(O)cc7)nc6-c6ccccc6)cc5c4c3)c(-c3ccccc3)[nH]2)cc1 | 100% | 100% | 100% | 100%
CCOc1ccc(CN2CCN(CC(O)COc3ccc(OCC(O)CN4CCN(Cc5ccc(OCC)cc5)CC4)cc3)CC2)cc1 (centres undefined) | 100% | 100% | 100% | 100%
CCCCNc1nc(NC(C)(C)C)nc(NC(C)(C)C)n1 | 100% | 100% | 100% | 100%
COc1ccc(CNC(=O)c2cc3c(=O)n4ccccc4nc3n(CCc3ccccc3)c2=N)cc1 | 100% | 100% | 100% | 100%
COc1ccc(CCn2c(=N)c(C(=O)NCc3cccnc3)cc3c(=O)n4cccc(C)c4nc32)cc1 | 100% | 100% | 100% | 100%
Cl.Cn1c(=O)n(C)c2cc(CNCCNc3ccnc4cc(Cl)ccc34)ccc21 | 100% | 100% | 100% | 100%
CCOc1ccc2nc(C)cc(Nc3ccc(N(C)C)cc3)c2c1.Cl | 100% | 100% | 100% | 100%

Structure (SMILES) | Motility (Onchocerca lienalis [1]) | Motility (Onchocerca lienalis [2]) | Motility (Onchocerca lienalis [3]) | Motility (Onchocerca lienalis [4])
COc1ccc(Nc2cc(C)nc(NCc3ccccc3)n2)cc1 | 66.66% | 100% | 100% | 100%
COc1ccc(C=C2SC(Nc3ccc(F)cc3)=NC2=O)c(OC)c1 | 100% | 100% | 100% | 100%
Oc1ccc2ccccc2c1CNc1nc2ccccc2[nH]1 | 100% | 100% | 100% | 100%
O=C1c2ccc3c4c(ccc(c24)C(=O)N1CCCCO)C(=O)N(CCCCO)C3=O | 100% | 100% | 100% | 100%
O=C(Nc1ccc(-c2nc3cc(NC(=O)c4ccc(Cl)cc4)ccc3[nH]2)cc1)c1ccc(Cl)cc1 | 100% | 100% | 100% | 100%
CCOC(=O)c1cnc2ccc(OC)cc2c1Nc1ccc(N2CCN(C)CC2)cc1 | 100% | 100% | 100% | 100%
COc1ccccc1C(=O)ON=C(N)Cc1cccc2ccccc12 | 100% | 100% | 100% | 100%
COc1ccc(C(=O)C(CCC(CNC(C)(C)C)C(=O)c2ccc(OC)cc2)CNC(C)(C)C)cc1 (centres undefined) | 100% | 100% | 100% | 100%
COc1cc(C(=O)ON=C(N)Cc2cccc3ccccc23)cc(OC)c1OC | 100% | 100% | 100% | 100%
CN1C=C(c2ccc3ccccc3n2)C(c2c[nH]c3ccccc23)c2ccccc21 (centres undefined) | 33.33% | 100% | 100% | 100%
Oc1c(C(Nc2ccccn2)c2cccc(Oc3ccccc3)c2)ccc2cccnc12 (centres undefined) | 6.66% | 100% | 100% | 100%
COc1cc(-c2nc(-c3ccccc3)c(-c3ccccc3)[nH]2)cc(OC)c1O | 100% | 100% | 100% | 100%
OC(CNC1CCCCC1)Cn1c2ccc(I)cc2c2cc(I)ccc21 (centres undefined) | 100% | 100% | 100% | 100%
Br.CCn1c2c(c(=N)c3c1CCC3)CCCC2 | 100% | 100% | 100% | 100%
COc1cc(CNCCc2ccc(Cl)cc2)cc(OC)c1O | 100% | 100% | 100% | 100%
Cc1ccc2c(C)nc(Nc3nc(C)cc(-c4ccccc4)n3)nc2c1 | 100% | 100% | 100% | 100%
CCOc1ccc(Nc2ccnc3cc(Cl)ccc23)cc1 | 100% | 100% | 100% | 100%
Oc1ccc(Br)cc1CN1CCN(Cc2ccc(Cl)cc2)CC1 | 100% | 100% | 100% | 100%
CCOc1ccc2nc(C)cc(Nc3ccc(Br)cc3)c2c1 | 100% | 100% | 100% | 100%
COc1cc2c3cc1Oc1c(OC)c(OC)cc4c1C(Cc1ccc(O)c(c1)Oc1ccc(cc1)CC3N(C)CC2)N(C)CC4.Cl (centres undefined) | 100% | 100% | 100% | 100%
Br.Cc1ccc(C)c(-c2csc(Nc3ccc(C)c(C)c3)n2)c1 | 100% | 100% | 100% | 100%
CCOC(=O)c1cnc2ccc(OC)cc2c1NCc1ccccc1 | 100% | 100% | 100% | 100%
CCOC(=O)C1=CN(C)C=C(C(=O)OCC)C1c1cc(Br)c(OCC)c(OC)c1 | 100% | 100% | 100% | 100%
CC(C)(C)c1ccc(C2CC3=Nc4ccccc4N(C(=O)c4ccccc4Cl)C(c4ccc(F)cc4)C3=C(O)C2)cc1 (centres undefined) | 100% | 100% | 100% | 100%
CN1CCN(c2nc(Nc3ccc(O)cc3)nc3ccccc23)CC1.Cl | 100% | 100% | 100% | 100%
